Assay results as given in patent US9359358B2, “Cyclohexyl azetidine derivatives as JAK inhibitors” (Incyte Holdings Corporation, priority 2011, dated 2016).
Structures can show the parent of a compound that is named as a salt.

Experiments:
[1] = molecular target: T1, human JAK1 (Homo sapiens, UniProt P23458); test: In Vitro JAK Kinase Assay (HTRF, phosphorylation of a biotinylated peptide), JAK1; format: biochemical; details: Table 4; catalytic domain a.a. 837-1142, assay of Example A
T1 construct: human JAK1 (a.a. 837-1142); His tag (N); made in house; host or cells: insect cells (baculovirus)
Summary of the method: (§1)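 HTRF detection (SA-APC plus Eu-labeled anti-phosphotyrosine Py20, 40 min after EDTA stop) quantified biotinylated-peptide phosphorylation. Kinase reactions with human JAK1 or JAK2 catalytic domains lasted 1 h at room temperature.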

[2] = molecular target: T2, human JAK2 (Homo sapiens, UniProt O60674); test: In Vitro JAK Kinase Assay (HTRF, phosphorylation of a biotinylated peptide), JAK2; format: biochemical; details: Table 4; assay of Example A
T2 construct: JAK2 (a.a. 828-1132); His tag (N); made in house; host or cells: insect cells (baculovirus)
Summary of the method: as §1

T1 sequence (P23458 849-1154): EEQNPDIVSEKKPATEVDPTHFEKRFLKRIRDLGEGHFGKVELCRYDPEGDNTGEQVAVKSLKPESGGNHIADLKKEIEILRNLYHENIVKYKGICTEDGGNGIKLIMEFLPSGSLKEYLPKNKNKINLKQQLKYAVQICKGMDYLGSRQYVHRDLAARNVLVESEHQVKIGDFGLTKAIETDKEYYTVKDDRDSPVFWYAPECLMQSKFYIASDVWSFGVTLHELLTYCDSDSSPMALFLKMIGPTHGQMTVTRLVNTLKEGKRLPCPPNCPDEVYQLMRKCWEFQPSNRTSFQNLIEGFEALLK
T2 sequence (O60674 828-1132): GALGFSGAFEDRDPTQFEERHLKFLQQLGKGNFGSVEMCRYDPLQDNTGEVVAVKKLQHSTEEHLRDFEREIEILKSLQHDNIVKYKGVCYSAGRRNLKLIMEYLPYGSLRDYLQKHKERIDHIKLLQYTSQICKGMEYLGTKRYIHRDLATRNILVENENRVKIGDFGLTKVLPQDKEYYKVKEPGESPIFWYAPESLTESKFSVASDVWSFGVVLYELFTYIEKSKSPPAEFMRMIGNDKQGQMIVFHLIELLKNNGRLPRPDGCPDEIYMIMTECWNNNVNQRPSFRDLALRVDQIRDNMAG

| SMILES | IC50 [1] [nM] | JAK2/JAK1 IC50 ratio [2] |
| --- | --- | --- |
| N#CCC1(n2cc(-c3ncnc4[nH]ccc34)cn2)CN([C@H]2CC[C@@H](Oc3cc(CN4CC(F)C4)nc(C(F)(F)F)n3)CC2)C1 [Example 37, {1-(cis-4-{[6-[(3-fluoroazetidin-1-yl)methyl]-2-(trifluoromethyl)pyrimidin-4-yl]oxy}cyclohexyl)-3-[4-(7H-pyrrolo[2,3-d]pyrimidin-4-yl)-1H-pyrazol-1-yl]azetidin-3-yl}acetonitrile tris(trifluoroacetate)] | < 10 | ≧10 |
| N#CCC1(n2cc(-c3ncnc4[nH]ccc34)cn2)CN([C@H]2CC[C@@H](Oc3cc(CNCC4(CO)CC4)nc(C(F)(F)F)n3)CC2)C1 [Example 38, {1-(cis-4-{[6-[({[1-(hydroxymethyl)cyclopropyl]methyl}-amino)methyl]-2-(trifluoromethyl)pyrimidin-4-yl]oxy}cyclohexyl)-3-[4-(7H-pyrrolo[2,3-d]pyrimidin-4-yl)-1H-pyrazol-1-yl]azetidin-3-yl}acetonitrile tris(trifluoroacetate) (salt)] | < 10 | ≧10 |
| COCCCNCc1cc(O[C@H]2CC[C@@H](N3CC(CC#N)(n4cc(-c5ncnc6[nH]ccc56)cn4)C3)CC2)nc(C(F)(F)F)n1 [Example 40, {1-(cis-4-{[6-{[(3-methoxypropyl)amino]methyl}-2-(trifluoromethyl)pyrimidin-4-yl]oxy}cyclohexyl)-3-[4-(7H-pyrrolo[2,3-d]pyrimidin-4-yl)-1H-pyrazol-1-yl]azetidin-3-yl}acetonitrile tris(trifluoroacetate)] | < 10 | ≧10 |
| COCC(C)NCc1cc(O[C@H]2CC[C@@H](N3CC(CC#N)(n4cc(-c5ncnc6[nH]ccc56)cn4)C3)CC2)nc(C(F)(F)F)n1 (stereo partly drawn) [Example 41, {1-(cis-4-{[6-{[(2-methoxy-1-methylethyl)amino]methyl}-2-(trifluoromethyl)pyrimidin-4-yl]oxy}cyclohexyl)-3-[4-(7H-pyrrolo[2,3-d]pyrimidin-4-yl)-1H-pyrazol-1-yl]azetidin-3-yl}acetonitrile tris(trifluoroacetate)] | < 10 | ≧10 |
| COCCN(C)Cc1cc(O[C@H]2CC[C@@H](N3CC(CC#N)(n4cc(-c5ncnc6[nH]ccc56)cn4)C3)CC2)nc(C(F)(F)F)n1.O=C(O)C(F)(F)F.O=C(O)C(F)(F)F.O=C(O)C(F)(F)F [Example 42, {1-(cis-4-{[6-{[(2-methoxyethyl)(methyl)amino]methyl}-2-(trifluoromethyl)pyrimidin-4-yl]oxy}cyclohexyl)-3-[4-(7H-pyrrolo[2,3-d]pyrimidin-4-yl)-1H-pyrazol-1-yl]azetidin-3-yl}acetonitrile tris(trifluoroacetate)] | < 10 | ≧10 |
| CC(C)(O)c1cc(O[C@H]2CC[C@@H](N3CC(CC#N)(n4cc(-c5ncnc6[nH]ccc56)cn4)C3)CC2)nc(C(F)(F)F)n1 [Example 43, {1-(cis-4-{[6-(1-Hydroxy-1-methylethyl)-2-(trifluoromethyl)pyrimidin-4-yl]oxy}cyclohexyl)-3-[4-(7H-pyrrolo[2,3-d]pyrimidin-4-yl)-1H-pyrazol-1-yl]azetidin-3-yl}acetonitrile bis(trifluoroacetate)] | < 10 | ≧10 |
| CC(C)(C)NCc1cc(O[C@H]2CC[C@@H](N3CC(CC#N)(n4cc(-c5ncnc6[nH]ccc56)cn4)C3)CC2)nc(C(F)(F)F)n1 [Example 44, {1-(cis-4-{[6-[(tert-Butylamino)methyl]-2-(trifluoromethyl)pyrimidin-4-yl]oxy}cyclohexyl)-3-[4-(7H-pyrrolo[2,3-d]pyrimidin-4-yl)-1H-pyrazol-1-yl]azetidin-3-yl}acetonitrile tetrakis(trifluoroacetate)] | < 10 | ≧10 |
| N#CCC1(n2cc(-c3ncnc4[nH]ccc34)cn2)CN([C@H]2CC[C@@H](Oc3cc(CCO)nc(C(F)(F)F)n3)CC2)C1 [Example 45, {1-(cis-4-{[6-(2-hydroxyethyl)-2-(trifluoromethyl)pyrimidin-4-yl]oxy}cyclohexyl)-3-[4-(7H-pyrrolo[2,3-d]pyrimidin-4-yl)-1H-pyrazol-1-yl]azetidin-3-yl}acetonitrile tris(trifluoroacetate)] | < 10 | ≧10 |
| CN(C)C(=O)c1cc(O[C@H]2CC[C@@H](N3CC(CC#N)(n4cc(-c5ncnc6[nH]ccc56)cn4)C3)CC2)nc(C(F)(F)F)n1 [Example 46, 6-[(cis-4-{3-(cyanomethyl)-3-[4-(7H-pyrrolo[2,3-d]pyrimidin-4-yl)-1H-pyrazol-1-yl]azetidin-1-yl}cyclohexyl)oxy]-N,N-dimethyl-2-(trifluoromethyl)pyrimidine-4-carboxamide bis(trifluoroacetate)] | < 10 | ≧10 |
| CCN(C)C(=O)c1cc(O[C@H]2CC[C@@H](N3CC(CC#N)(n4cc(-c5ncnc6[nH]ccc56)cn4)C3)CC2)nc(C(F)(F)F)n1 [Example 48, 6-[(cis-4-{3-(cyanomethyl)-3-[4-(7H-pyrrolo[2,3-d]pyrimidin-4-yl)-1H-pyrazol-1-yl]azetidin-1-yl}cyclohexyl)oxy]-N-ethyl-N-methyl-2-(trifluoromethyl)pyrimidine-4-carboxamide bis(trifluoroacetate)] | < 10 | ≧10 |
| CCNC(=O)c1cc(O[C@H]2CC[C@@H](N3CC(CC#N)(n4cc(-c5ncnc6[nH]ccc56)cn4)C3)CC2)nc(C(F)(F)F)n1 [Example 49, 6-[(cis-4-{3-(cyanomethyl)-3-[4-(7H-pyrrolo[2,3-d]pyrimidin-4-yl)-1H-pyrazol-1-yl]azetidin-1-yl}cyclohexyl)oxy]-N-ethyl-2-(trifluoromethyl)pyrimidine-4-carboxamide bis(trifluoroacetate)] | < 10 | ≧10 |
| COCCNC(=O)c1cc(O[C@H]2CC[C@@H](N3CC(CC#N)(n4cc(-c5ncnc6[nH]ccc56)cn4)C3)CC2)nc(C(F)(F)F)n1 [Example 50, 6-[(cis-4-{3-(cyanomethyl)-3-[4-(7H-pyrrolo[2,3-d]pyrimidin-4-yl)-1H-pyrazol-1-yl]azetidin-1-yl}cyclohexyl)oxy]-N-(2-methoxyethyl)-2-(trifluoromethyl)pyrimidine-4-carboxamide bis(trifluoroacetate)] | < 10 | ≧10 |
| N#CCC1(n2cc(-c3ncnc4[nH]ccc34)cn2)CN([C@H]2CC[C@@H](Oc3cc(C(=O)N4CCCC4)nc(C(F)(F)F)n3)CC2)C1 [Example 51, {1-(cis-4-{[6-(pyrrolidin-1-ylcarbonyl)-2-(trifluoromethyl)pyrimidin-4-yl]oxy}cyclohexyl)-3-[4-(7H-pyrrolo[2,3-d]pyrimidin-4-yl)-1H-pyrazol-1-yl]azetidin-3-yl}acetonitrile bis(trifluoroacetate)] | < 10 | ≧10 |
| CC(C)(CO)NCc1cc(O[C@H]2CC[C@@H](N3CC(CC#N)(n4cc(-c5ncnc6[nH]ccc56)cn4)C3)CC2)nc(C(F)(F)F)n1.O=C(O)C(F)(F)F.O=C(O)C(F)(F)F.O=C(O)C(F)(F)F.O=C(O)C(F)(F)F [Example 52, {1-(cis-4-{[6-{[(2-hydroxy-1,1-dimethylethyl)amino]methyl}-2-(trifluoromethyl)pyrimidin-4-yl]oxy}cyclohexyl)-3-[4-(7H-pyrrolo[2,3-d]pyrimidin-4-yl)-1H-pyrazol-1-yl]azetidin-3-yl}acetonitrile tetrakis(trifluoroacetate) (salt)] | < 10 | ≧10 |
| CC1(NCc2cc(O[C@H]3CC[C@@H](N4CC(CC#N)(n5cc(-c6ncnc7[nH]ccc67)cn5)C4)CC3)nc(C(F)(F)F)n2)CC1.O=C(O)C(F)(F)F.O=C(O)C(F)(F)F.O=C(O)C(F)(F)F [Example 53, {1-(cis-4-{[6-{[(1-methylcyclopropyl)amino]methyl}-2-(trifluoromethyl)pyrimidin-4-yl]oxy}cyclohexyl)-3-[4-(7H-pyrrolo[2,3-d]pyrimidin-4-yl)-1H-pyrazol-1-yl]azetidin-3-yl}acetonitrile tris(trifluoroacetate)] | < 10 | ≧10 |
| N#CCC1(n2cc(-c3ncnc4[nH]ccc34)cn2)CN([C@H]2CC[C@@H](Oc3cc(C#N)nc(C(F)(F)F)n3)CC2)C1 [Example 54, 6-[(cis-4-{3-(cyanomethyl)-3-[4-(7H-pyrrolo[2,3-d]pyrimidin-4-yl)-1H-pyrazol-1-yl]azetidin-1-yl}cyclohexyl)oxy]-2-(trifluoromethyl)pyrimidine-4-carbonitrile bis(trifluoroacetate)] | < 10 | ≧10 |
| N#CCC1(n2cc(-c3ncnc4[nH]ccc34)cn2)CN([C@H]2CC[C@@H](Oc3cc(OCCO)nc(C(F)(F)F)n3)CC2)C1 [Example 56, {1-(cis-4-{[6-(2-hydroxyethoxy)-2-(trifluoromethyl)pyrimidin-4-yl]oxy}cyclohexyl)-3-[4-(7H-pyrrolo[2,3-d]pyrimidin-4-yl)-1H-pyrazol-1-yl]azetidin-3-yl}acetonitrile bis(trifluoroacetate) (salt)] | < 10 | ≧10 |
| N#CCC1(n2cc(-c3ncnc4[nH]ccc34)cn2)CN([C@H]2CC[C@@H](Oc3cc(CCF)nc(C(F)(F)F)n3)CC2)C1 [Example 60, {1-(cis-4-{[6-(2-fluoro ethyl)-2-(trifluoromethyl)pyrimidin-4-yl]oxy}cyclohexyl)-3-[4-(7H-pyrrolo[2,3-d]pyrimidin-4-yl)-1H-pyrazol-1-yl]azetidin-3-yl}acetonitrile tris(trifluoroacetate)] | < 10 | ≧10 |
